Activity calls are given as the source filed them. No cut-off for these calls is given here.
Key:
[1] = Cytotoxicity against human breast cancer cells after 48 hrs by SRB assay; format: functional; details: Cancer cell lines
Mus musculus = assay: Antitumor activity in ip dosed athymic nude mouse hollow fiber model assessed as reduction of viable cell mass; format: functional, organism-based
[2] = Cytotoxicity against human colon cancer cells after 48 hrs by SRB assay; format: functional; details: Cancer cell lines
U-251 = assay: Cytotoxicity against human U251 cells assessed as cell growth at 10 uM after 48 hrs by SRB assay; format: functional; details: U-251, 48 h, read-out: Activity
[3] = Cytotoxicity against human melanoma cells after 48 hrs by SRB assay; format: functional; details: Melanoma cell; for CC50: read-out: LC50 (the source's name)
[4] = Cytotoxicity against human leukemia cells after 48 hrs by SRB assay; format: functional; details: Leukemia cell; for CC50: read-out: LC50 (the source's name)
[5] = Cytotoxicity against human CNS cancer cells after 48 hrs by SRB assay; format: functional; details: Cancer cell lines
[6] = Cytotoxicity against human prostate cancer cells after 48 hrs by SRB assay; format: functional; details: Cancer cell lines
[7] = Cytotoxicity against human renal cancer cells after 48 hrs by SRB assay; format: functional; details: Cancer cell lines
[8] = Cytotoxicity against human ovarian cancer cells after 48 hrs by SRB assay; format: functional; details: Cancer cell lines
[9] = Toxicity in mouse; format: organism-based; details: in vivo
[10] = Cytotoxicity against human non-small cell lung cancer cells after 48 hrs by SRB assay; format: functional; details: Cancer cell lines; for CC50: read-out: LC50 (the source's name)
CCRF-CEM = assay: Cytotoxicity against human CCRF-CEM cells assessed as cell growth at 10 uM after 48 hrs by SRB assay; format: functional; details: read-out: Activity
NCI-H522 = assay: Cytotoxicity against human NCI-H522 cells assessed as cell growth at 10 uM after 48 hrs by SRB assay; format: functional; details: NCI-H522, 48 h, read-out: Activity

Row | Compound | GI50 [1] [µM] | LC50 (concentration causing 50% net cell kill) [1] [µM] | TGI [1] [µM] | GI50 [2] [µM] | LC50 (concentration lethal to 50% of cells) [2] [µM] | TGI [2] [µM] | GI50 [3] [µM] | TGI [3] [µM] | CC50 [3] [µM] | GI50 [4] [µM] | TGI [4] [µM] | CC50 [4] [µM] | GI50 [5] [µM] | LC50 (concentration giving 50% net cell kill) [5] [µM] | TGI [5] [µM] | GI50 [6] [µM] | LC50 [6] [µM] | GI50 [7] [µM] | LC50 [7] [µM] | TGI [7] [µM] | other results
1 | O=C1N=C(N2N=C(c3ccc4ccccc4c3)CC2c2ccc(Cl)cc2)S/C1=C1/C(=O)Nc2ccccc21 (stereo not drawn) | 0.74 | 91.7 | 38.3 | 0.53 | 83.8 | 70.3 | 0.35 | 24.7 | 83 | 19.1 | 71.6 | 93.1 | 8.8 | 75.9 | 27.3 | 0.4 | 100 | 0.4 | 75.5 | 42.1 | Activity (Mus musculus): inactive; growth at 10 µM (U-251): -25.1%; TGI [6]: 50.7 µM; GI50 [8]: 15.4 µM; LC50 (concentration causing 50% net cell kill) [8]: 100 µM; TGI [8]: 56.1 µM; MTD [9]: > 400 mg/kg; GI50 [10]: 0.46 µM; TGI [10]: 20.9 µM; CC50 [10]: 100 µM
2 | COc1ccc(C2=NN(C3=NC(=O)/C(=C4\C(=O)Nc5ccc(Br)cc54)S3)C(c3ccc(OC)cc3)C2)cc1 (stereo not drawn) | 0.21 | 66.9 | 0.48 | 0.2 | 50.4 | 25.3 | 0.19 | 0.41 | 17.3 | 0.28 | 62.7 | 100 | 0.2 | 70.2 | 0.405 | 0.27 | 100 | 0.2 | 64.6 | 0.38 | growth at 10 µM (U-251): 23.9%; TGI [6]: 0.71 µM; GI50 [8]: 0.24 µM; LC50 (concentration causing 50% net cell kill) [8]: 78.7 µM; TGI [8]: 32.5 µM; GI50 [10]: 0.2 µM; TGI [10]: 0.43 µM; CC50 [10]: 75.2 µM
3 | COc1ccc(-c2cc(-c3ccc(Cl)cc3)n(C3C(=O)Nc4ccccc43)n2)cc1 (stereo not drawn) | – | – | – | – | – | – | – | – | – | – | – | – | – | – | – | – | – | – | – | – | growth at 10 µM (CCRF-CEM): 75.6%
4 | CN(C)c1ccc(C2CC(c3ccccc3)=NN2C2=NC(=O)/C(=C3\C(=O)Nc4ccc(Br)cc43)S2)cc1 (stereo not drawn) | 0.22 | 18.7 | 0.51 | 0.2 | 1.22 | 0.42 | 0.2 | 0.46 | 7.65 | 0.31 | 1.29 | 84.8 | 0.21 | 12.3 | 0.45 | 0.27 | 55.3 | 0.2 | 7.47 | 0.45 | growth at 10 µM (U-251): -51.1%; TGI [6]: 0.72 µM; GI50 [8]: 0.25 µM; LC50 (concentration causing 50% net cell kill) [8]: 39.6 µM; TGI [8]: 0.69 µM; GI50 [10]: 0.22 µM; TGI [10]: 0.54 µM; CC50 [10]: 17 µM
5 | O=C(O)CN1C(=O)C(n2nc(-c3ccccc3)cc2-c2ccc(Cl)cc2)c2ccccc21 (stereo not drawn) | – | – | – | – | – | – | – | – | – | – | – | – | – | – | – | – | – | – | – | – | growth at 10 µM (CCRF-CEM): 97.7%
6 | COc1ccc(-c2cc(-c3ccc(OC)cc3)n(C3C(=O)Nc4ccc(Cl)cc43)n2)cc1 (stereo not drawn) | – | – | – | – | – | – | – | – | – | – | – | – | – | – | – | – | – | – | – | – | growth at 10 µM (NCI-H522): 82%
7 | COc1ccc(C2=NN(C3=NC(=O)/C(=C4\C(=O)Nc5ccccc54)S3)C(c3ccc(OC)cc3)C2)cc1 (stereo not drawn) | 81.5 | 100 | 99.6 | 100 | 100 | 100 | 100 | 100 | 100 | 100 | 100 | 100 | 43.9 | 100 | 89.2 | 100 | 100 | 85.2 | 100 | 100 | growth at 10 µM (U-251): 44.7%; TGI [6]: 100 µM; GI50 [8]: 92.2 µM; LC50 (concentration causing 50% net cell kill) [8]: 100 µM; TGI [8]: 100 µM; GI50 [10]: 88.1 µM; TGI [10]: 91.5 µM; CC50 [10]: 100 µM
8 | COc1ccc(C2CC(c3ccc4ccccc4c3)=NN2C2=NC(=O)/C(=C3\C(=O)Nc4ccccc43)S2)cc1 (stereo not drawn) | 5.96 | 73.7 | 32.8 | 1.68 | 38.3 | 12.4 | 4.8 | 27 | 64.1 | 17.5 | 59.6 | 97.5 | 0.67 | 48.2 | 12.6 | 0.36 | 100 | 0.87 | 51.3 | 13.6 | growth at 10 µM (U-251): -26.3%; TGI [6]: 2.47 µM; GI50 [8]: 0.97 µM; LC50 (concentration causing 50% net cell kill) [8]: 66.9 µM; TGI [8]: 24.2 µM; GI50 [10]: 0.62 µM; TGI [10]: 4.03 µM; CC50 [10]: 48.7 µM
9 | COc1ccc(C2=NN(C3=NC(=O)/C(=C4\C(=O)Nc5ccc(Cl)cc54)S3)C(c3ccc(Cl)cc3)C2)cc1 (stereo not drawn) | 0.2 | 25.7 | 0.47 | 0.21 | 8.2 | 0.45 | 0.2 | 0.44 | 1.21 | 0.27 | 0.89 | 91.1 | 0.19 | 12.7 | 0.43 | 0.27 | 76.2 | 0.2 | 13.8 | 0.46 | growth at 10 µM (U-251): -58%; TGI [6]: 0.74 µM; GI50 [8]: 0.27 µM; LC50 (concentration causing 50% net cell kill) [8]: 31.3 µM; TGI [8]: 7.97 µM; GI50 [10]: 0.2 µM; TGI [10]: 0.46 µM; CC50 [10]: 7.93 µM
10 | COc1ccc(C2=NN(C3=NC(=O)/C(=C4\C(=O)N(C)c5ccccc54)S3)C(c3ccc(Cl)cc3)C2)cc1 (stereo not drawn) | – | – | – | – | – | – | – | – | – | – | – | – | – | – | – | – | – | – | – | – | growth at 10 µM (NCI-H522): 102%
11 | COc1ccc(C2=NN(C3=NC(=O)/C(=C4\C(=O)Nc5ccc(Cl)cc54)S3)C(c3ccc(OC)cc3)C2)cc1 (stereo not drawn) | 0.22 | 75.2 | 0.5 | 0.21 | 58.7 | 0.43 | 0.19 | 0.38 | 33.9 | 0.28 | 75.2 | 100 | 0.2 | 35.5 | 0.42 | 0.25 | 100 | 0.19 | 50.5 | 0.39 | growth at 10 µM (NCI-H522): 0.8%; TGI [6]: 0.71 µM; GI50 [8]: 0.23 µM; LC50 (concentration causing 50% net cell kill) [8]: 83.5 µM; TGI [8]: 21.2 µM; GI50 [10]: 0.2 µM; TGI [10]: 0.44 µM; CC50 [10]: 64.2 µM
12 | O=C(O)CN1C(=O)C(n2nc(-c3ccc4ccccc4c3)cc2-c2ccc(Cl)cc2)c2ccccc21 (stereo not drawn) | – | – | – | – | – | – | – | – | – | – | – | – | – | – | – | – | – | – | – | – | growth at 10 µM (CCRF-CEM): 103%
13 | COc1ccc(-c2cc(-c3ccc(OC)cc3)n(C3C(=O)Nc4ccc(Br)cc43)n2)cc1 (stereo not drawn) | – | – | – | – | – | – | – | – | – | – | – | – | – | – | – | – | – | – | – | – | growth at 10 µM (NCI-H522): 88.6%
14 | O=C1Nc2ccccc2C1n1nc(-c2ccccc2)cc1-c1ccc(Cl)cc1 (stereo not drawn) | – | – | – | – | – | – | – | – | – | – | – | – | – | – | – | – | – | – | – | – | growth at 10 µM (NCI-H522): 76.6%
15 | CN(C)c1ccc(C2CC(c3ccccc3)=NN2C2=NC(=O)/C(=C3\C(=O)Nc4ccccc43)S2)cc1 (stereo not drawn) | 5.26 | 57.3 | 20.2 | 2.55 | 40.4 | 35.3 | 6.9 | 29.4 | 43.9 | 33.9 | 45.6 | 94.8 | 1.11 | 41.6 | 3.24 | 0.27 | 41.4 | 6.37 | 43 | 18.8 | Activity (Mus musculus): inactive; growth at 10 µM (U-251): -39.6%; TGI [6]: 34 µM; GI50 [8]: 1.22 µM; LC50 (concentration causing 50% net cell kill) [8]: 47.1 µM; TGI [8]: 39.7 µM; MTD [9]: > 400 mg/kg; GI50 [10]: 7.42 µM; TGI [10]: 25.2 µM; CC50 [10]: 49 µM
16 | Cc1ccc2c(c1)/C(=C1\SC(N3N=C(c4ccccc4)CC3c3ccc(Cl)cc3)=NC1=O)C(=O)N2 (stereo not drawn) | 0.8 | 100 | 100 | 0.23 | 100 | 0.35 | 0.3 | 0.67 | 100 | 0.39 | 39.4 | 85.2 | 0.24 | 75.2 | 0.32 | 0.31 | 100 | 0.24 | 100 | 0.52 | growth at 10 µM (U-251): -54%; GI50 [8]: 0.26 µM; LC50 (concentration causing 50% net cell kill) [8]: 100 µM; GI50 [10]: 0.21 µM; TGI [10]: 0.62 µM; CC50 [10]: 100 µM
17 | COc1ccc(-c2cc(-c3ccc(OC)cc3)n(C3C(=O)Nc4ccccc43)n2)cc1 (stereo not drawn) | – | – | – | – | – | – | – | – | – | – | – | – | – | – | – | – | – | – | – | – | growth at 10 µM (NCI-H522): 87.5%
18 | O=C1Nc2ccccc2C1n1nc(-c2ccc3ccccc3c2)cc1-c1ccc(Cl)cc1 (stereo not drawn) | – | – | – | – | – | – | – | – | – | – | – | – | – | – | – | – | – | – | – | – | growth at 10 µM (NCI-H522): 90.8%
